Experiments:
Experiment in all cases: NCI-60 single-dose screen
Assay type in all cases: cell-based
[1] = tested on: SK-MEL-28; details: Homo sapiens, single dose 10 µM, '-' = no inhibition, read-out: % Growth Inhibition
Description: (§1) The National Cancer Institute’s Developmental Therapeutic Program (www.dtp.nci.nih.gov) has tested compounds 9–29 (except compounds 21 and 22) against 60 cancer cell lines from nine types (leukemia, lung, colon, CNS, melanoma, ovarian, renal, prostate, and breast cancer) at a single dose (10 μM) ([El-Sherief et al., 2018]). […] The most sensitive cells included leukemia (SR, K-562, and MOLT-4), lung (NCI-H522, […], and EKVX), breast (MCF-7 and T-47D), colon (HCT-15 and HT-29), and ovarian (NCI/ADR-RES).
(§2) The National Cancer Institute’s Developmental Therapeutic Program (www.dtp.nci.nih.gov) evaluated compounds 9–29 (excluding 21 and 22) against 60 cancer cell lines from nine categories (leukemia, lung, colon, CNS, melanoma, ovarian, renal, prostate, and breast cancer) at a single dose (10 μM) ([El-Sherief et al., 2018]). See Supplementary Material A1 for more details.

[2] = tested on: UACC-62; details: Homo sapiens, single dose 10 µM, '-' = no inhibition, read-out: % Growth Inhibition
Description: as §1, §2

[3] = tested on: DU-145; details: Homo sapiens, single dose 10 µM, '-' = no inhibition, read-out: % Growth Inhibition
Description: as §1, §2

[4] = tested on: U251; details: Homo sapiens, U-251, single dose 10 µM, '-' = no inhibition, read-out: % Growth Inhibition
Description: as §1, §2

[5] = tested on: OVCAR-5; details: Homo sapiens, single dose 10 µM, '-' = no inhibition, read-out: % Growth Inhibition
Description: as §1, §2

[6] = tested on: SNB-75; details: Homo sapiens, single dose 10 µM, '-' = no inhibition, read-out: % Growth Inhibition
Description: as §1, §2

[7] = tested on: KM12; details: Homo sapiens, single dose 10 µM, '-' = no inhibition, read-out: % Growth Inhibition
Description: as §1, §2

[8] = tested on: NCI-H23; details: Homo sapiens, single dose 10 µM, '-' = no inhibition, read-out: % Growth Inhibition
Description: as §1, §2

[9] = tested on: SF-268; details: Homo sapiens, single dose 10 µM, '-' = no inhibition, read-out: % Growth Inhibition
Description: as §1, §2

[10] = tested on: SK-MEL-5; details: Homo sapiens, single dose 10 µM, '-' = no inhibition, read-out: % Growth Inhibition
Description: as §1, §2

[11] = tested on: HOP-92; details: Homo sapiens, single dose 10 µM, '-' = no inhibition, read-out: % Growth Inhibition
Description: as §1, §2

[12] = tested on: OVCAR-3; details: Homo sapiens, single dose 10 µM, '-' = no inhibition, read-out: % Growth Inhibition
Description: as §1, §2

[13] = tested on: UO-31; details: Homo sapiens, single dose 10 µM, '-' = no inhibition, read-out: % Growth Inhibition
Description: as §1, §2

[14] = tested on: HS 578T; details: Homo sapiens, single dose 10 µM, '-' = no inhibition, read-out: % Growth Inhibition
Description: as §1, §2

[15] = tested on: NCI/ADR-RES; details: Homo sapiens, single dose 10 µM, '-' = no inhibition, read-out: % Growth Inhibition
Description: as §1, §2

[16] = tested on: ACHN 1; details: Homo sapiens, single dose 10 µM, '-' = no inhibition, read-out: % Growth Inhibition
Description: as §1, §2

[17] = tested on: OVCAR-4; details: Homo sapiens, single dose 10 µM, '-' = no inhibition, read-out: % Growth Inhibition
Description: as §1, §2

[18] = tested on: HCT-116; details: Homo sapiens, single dose 10 µM, '-' = no inhibition, read-out: % Growth Inhibition
Description: as §1, §2

[19] = tested on: PC-3; details: Homo sapiens, single dose 10 µM, '-' = no inhibition, read-out: % Growth Inhibition
Description: as §1, §2

[20] = tested on: RPMI-8226; details: Homo sapiens, single dose 10 µM, '-' = no inhibition, read-out: % Growth Inhibition
Description: as §1, §2

[21] = tested on: HCT-15; details: Homo sapiens, single dose 10 µM, '-' = no inhibition, read-out: % Growth Inhibition
Description: as §1, §2

[22] = tested on: NCI-H522; details: Homo sapiens, single dose 10 µM, '-' = no inhibition, read-out: % Growth Inhibition
Description: as §1, §2

[23] = tested on: HOP-62; details: Homo sapiens, single dose 10 µM, '-' = no inhibition, read-out: % Growth Inhibition
Description: as §1, §2

[24] = tested on: A549/ATCC; details: Homo sapiens, single dose 10 µM, '-' = no inhibition, read-out: % Growth Inhibition
Description: as §1, §2

[25] = tested on: IGROV1; details: Homo sapiens, IGROV-1, single dose 10 µM, '-' = no inhibition, read-out: % Growth Inhibition
Description: as §1, §2

[26] = tested on: M14; details: Homo sapiens, single dose 10 µM, '-' = no inhibition, read-out: % Growth Inhibition
Description: as §1, §2

[27] = tested on: NCI-H322M; details: Homo sapiens, single dose 10 µM, '-' = no inhibition, read-out: % Growth Inhibition
Description: as §1, §2

[28] = tested on: COLO 205; details: Homo sapiens, single dose 10 µM, '-' = no inhibition, read-out: % Growth Inhibition
Description: as §1, §2

[29] = tested on: MALME-3M; details: Homo sapiens, single dose 10 µM, '-' = no inhibition, read-out: % Growth Inhibition
Description: as §1, §2

[30] = tested on: A498; details: Homo sapiens, single dose 10 µM, '-' = no inhibition, read-out: % Growth Inhibition
Description: as §1, §2

[31] = tested on: SF-539; details: Homo sapiens, single dose 10 µM, '-' = no inhibition, read-out: % Growth Inhibition
Description: as §1, §2

[32] = tested on: HCC-2998; details: Homo sapiens, single dose 10 µM, '-' = no inhibition, read-out: % Growth Inhibition
Description: as §1, §2

[33] = tested on: EKVX; details: Homo sapiens, single dose 10 µM, '-' = no inhibition, read-out: % Growth Inhibition
Description: as §1, §2

[34] = tested on: NCI-H460; details: Homo sapiens, single dose 10 µM, '-' = no inhibition, read-out: % Growth Inhibition
Description: as §1, §2

[35] = tested on: LOX IMVI; details: Homo sapiens, single dose 10 µM, '-' = no inhibition, read-out: % Growth Inhibition
Description: as §1, §2

[36] = tested on: 786-0; details: Homo sapiens, single dose 10 µM, '-' = no inhibition, read-out: % Growth Inhibition
Description: as §1, §2

[37] = tested on: SNB-19; details: Homo sapiens, single dose 10 µM, '-' = no inhibition, read-out: % Growth Inhibition
Description: as §1, §2

[38] = tested on: CCRF-CEM; details: Homo sapiens, single dose 10 µM, '-' = no inhibition, read-out: % Growth Inhibition
Description: as §1, §2

[39] = tested on: T-47D; details: Homo sapiens, T47D, single dose 10 µM, '-' = no inhibition, read-out: % Growth Inhibition
Description: as §1, §2

[40] = tested on: MDA-MB-468; details: Homo sapiens, single dose 10 µM, '-' = no inhibition, read-out: % Growth Inhibition
Description: as §1, §2

[41] = tested on: MCF7; details: Homo sapiens, single dose 10 µM, '-' = no inhibition, read-out: % Growth Inhibition
Description: as §1, §2

[42] = tested on: SK-OV-3; details: Homo sapiens, single dose 10 µM, '-' = no inhibition, read-out: % Growth Inhibition
Description: as §1, §2

[43] = tested on: RXF 393; details: Homo sapiens, single dose 10 µM, '-' = no inhibition, read-out: % Growth Inhibition
Description: as §1, §2

[44] = tested on: SF-295; details: Homo sapiens, single dose 10 µM, '-' = no inhibition, read-out: % Growth Inhibition
Description: as §1, §2

[45] = tested on: SK-MEL-2; details: Homo sapiens, single dose 10 µM, '-' = no inhibition, read-out: % Growth Inhibition
Description: as §1, §2

[46] = tested on: CAKI-1; details: Homo sapiens, single dose 10 µM, '-' = no inhibition, read-out: % Growth Inhibition
Description: as §1, §2

[47] = tested on: SR; details: Homo sapiens, single dose 10 µM, '-' = no inhibition, read-out: % Growth Inhibition
Description: as §1, §2

[48] = tested on: SW-620; details: Homo sapiens, single dose 10 µM, '-' = no inhibition, read-out: % Growth Inhibition
Description: as §1, §2

In the case of `CCCSc1nc(-c2ccc(Cl)cc2)cc(-c2ccc(OC)cc2)n1` [Compound 11, 4-(4-Chlorophenyl)-6-(4-methoxyphenyl)-2-(propylthio)pyrimidine], the inhibition at 10 µM [1] was less than 0%, the inhibition at 10 µM [2] was 18.1% and the inhibition at 10 µM [3] was 0.44%. It also gave an inhibition at 10 µM [4] of 5.99%, an inhibition at 10 µM [5] of less than 0% and an inhibition at 10 µM [6] of less than 0%. It also gave an inhibition at 10 µM [7] of 1.24%, an inhibition at 10 µM [8] of less than 0% and an inhibition at 10 µM [9] of less than 0%. For the same compound, the inhibition at 10 µM [10] was 3.98%, the inhibition at 10 µM [11] was less than 0% and the inhibition at 10 µM [12] was less than 0%. It also gave an inhibition at 10 µM [13] of 9.15%, an inhibition at 10 µM [14] of less than 0% and an inhibition at 10 µM [15] of less than 0%. For the same compound, the inhibition at 10 µM [16] was less than 0%, the inhibition at 10 µM [17] was less than 0% and the inhibition at 10 µM [18] was less than 0%. For the same compound, the inhibition at 10 µM [19] was less than 0%, the inhibition at 10 µM [20] was less than 0% and the inhibition at 10 µM [21] was 7.25%. For the same compound, the inhibition at 10 µM [22] was 9.17%, the inhibition at 10 µM [23] was less than 0% and the inhibition at 10 µM [24] was 6.74%. For the same compound, the inhibition at 10 µM [25] was less than 0%, the inhibition at 10 µM [26] was less than 0% and the inhibition at 10 µM [27] was less than 0%. The inhibition at 10 µM [28] was less than 0%, the inhibition at 10 µM [29] was less than 0% and the inhibition at 10 µM [30] was 2.73%. It also gave an inhibition at 10 µM [31] of less than 0%, an inhibition at 10 µM [32] of less than 0% and an inhibition at 10 µM [33] of 6.92%. It also gave an inhibition at 10 µM [34] of less than 0%, an inhibition at 10 µM [35] of less than 0% and an inhibition at 10 µM [36] of 0.11%. The inhibition at 10 µM [37] was 1.03%, the inhibition at 10 µM [38] was 1.71% and the inhibition at 10 µM [39] was 8.26%. For the same compound, the inhibition at 10 µM [40] was 7.92%, the inhibition at 10 µM [41] was 4.02% and the inhibition at 10 µM [42] was less than 0%. The inhibition at 10 µM [43] was less than 0%, the inhibition at 10 µM [44] was 6.79% and the inhibition at 10 µM [45] was 7.18%. For the same compound, the inhibition at 10 µM [46] was 7.98%, the inhibition at 10 µM [47] was 14.6% and the inhibition at 10 µM [48] was 0.11%.

`CCSc1nc(-c2ccc(OC)cc2)cc(-c2cccc(OC)c2)n1` [Compound 17, 2-(Ethylthio)-6-(3-methoxyphenyl)-4-(4-methoxyphenyl)pyrimidine] showed an inhibition at 10 µM [1] of less than 0%, an inhibition at 10 µM [2] of less than 0% and an inhibition at 10 µM [3] of less than 0%. The inhibition at 10 µM [4] was less than 0%, the inhibition at 10 µM [5] was less than 0% and the inhibition at 10 µM [6] was less than 0%. It also gave an inhibition at 10 µM [7] of 2.23%, an inhibition at 10 µM [8] of less than 0% and an inhibition at 10 µM [9] of less than 0%. For the same compound, the inhibition at 10 µM [10] was 6.31%, the inhibition at 10 µM [11] was less than 0% and the inhibition at 10 µM [12] was less than 0%. It also gave an inhibition at 10 µM [13] of 13.7%, an inhibition at 10 µM [14] of less than 0% and an inhibition at 10 µM [15] of less than 0%. The inhibition at 10 µM [16] was less than 0%, the inhibition at 10 µM [17] was 3.36% and the inhibition at 10 µM [18] was 5.86%. It also gave an inhibition at 10 µM [19] of less than 0%, an inhibition at 10 µM [20] of 3.83% and an inhibition at 10 µM [21] of 2.62%. The inhibition at 10 µM [22] was 5.39%, the inhibition at 10 µM [23] was less than 0% and the inhibition at 10 µM [24] was 0.61%. It also gave an inhibition at 10 µM [25] of less than 0%, an inhibition at 10 µM [26] of less than 0% and an inhibition at 10 µM [27] of less than 0%. The inhibition at 10 µM [28] was less than 0%, the inhibition at 10 µM [29] was less than 0% and the inhibition at 10 µM [30] was less than 0%. The inhibition at 10 µM [31] was less than 0%, the inhibition at 10 µM [32] was less than 0% and the inhibition at 10 µM [33] was 1.03%. The inhibition at 10 µM [34] was less than 0%, the inhibition at 10 µM [35] was 5.7% and the inhibition at 10 µM [36] was less than 0%. The inhibition at 10 µM [37] was less than 0%, the inhibition at 10 µM [38] was 2.15% and the inhibition at 10 µM [39] was 10.2%. It also gave an inhibition at 10 µM [40] of less than 0%, an inhibition at 10 µM [41] of 11% and an inhibition at 10 µM [43] of less than 0%. It also gave an inhibition at 10 µM [44] of less than 0%, an inhibition at 10 µM [45] of 5.15% and an inhibition at 10 µM [46] of 9.72%. For the same compound, the inhibition at 10 µM [47] was 18.4% and the inhibition at 10 µM [48] was 1.81%.
